Data from the supplement of paper PMC10307832.

Legend:
Test in all cases: relative viability (nuclei count vs DMSO), 5 days (fraction); higher = more cells survive
Carboplatin + Luminespib = compound: C1CC(C1)(C(=O)O)C(=O)O.[NH2-].[NH2-].[Pt+2] [Carboplatin] + CCNC(=O)c1noc(-c2cc(C(C)C)c(O)cc2O)c1-c1ccc(CN2CCOCC2)cc1 [Luminespib] (partner 0.01 µM)
Summary of the method: (§1)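 Cells from lung cancer lines were seeded into 1536-well plates and, one day later, dosed by pin tool. Treatments were either a single drug or a fixed dose of an anchor drug with five library-drug doses (not always all listed) in √10 steps. After 5 days, nuclei were stained in a one-step fixation (final 0.05% Triton X-100, 1% formaldehyde, 1 ug/ml Hoechst) and counted on 4× images, and relative viability is the treated-to-vehicle nuclei ratio, as the median of duplicate plates.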

GSK126 + Decitabine = compound: CC[C@H](C)N1C=C(C2=C(C=C(C=C21)C3=CN=C(C=C3)N4CCNCC4)C(=O)NCC5=C(C=C(NC5=O)C)C)C [GSK126] + Nc1ncn([C@H]2C[C@H](O)[C@@H](CO)O2)c(=O)n1 [Decitabine] (partner 2 µM)
Summary of the method: as §1

GSK126 + Vorinostat = compound: CC[C@H](C)N1C=C(C2=C(C=C(C=C21)C3=CN=C(C=C3)N4CCNCC4)C(=O)NCC5=C(C=C(NC5=O)C)C)C [GSK126] + O=C(CCCCCCC(=O)Nc1ccccc1)NO [Vorinostat] (partner 1 µM)
Summary of the method: as §1

MLN4924 + Bortezomib = compound: NS(=O)(=O)OC[C@@H]1C[C@@H](n2ccc3c(N[C@H]4CCc5ccccc54)ncnc32)C[C@@H]1O [MLN4924] + CC(C)C[C@H](NC(=O)[C@H](Cc1ccccc1)NC(=O)c1cnccn1)B(O)O [Bortezomib] (partner 0.002 µM)
Summary of the method: as §1

Cell Line	relative viability (Carboplatin + Luminespib; first compound 0.08 µM)	relative viability (Carboplatin + Luminespib; first compound 0.253 µM)	relative viability (Carboplatin + Luminespib; first compound 0.8 µM)	relative viability (Carboplatin + Luminespib; first compound 2.53 µM)	relative viability (Carboplatin + Luminespib; first compound 8 µM)	relative viability (GSK126 + Decitabine; first compound 0.08 µM)	relative viability (GSK126 + Decitabine; first compound 0.253 µM)	relative viability (GSK126 + Decitabine; first compound 0.8 µM)	relative viability (GSK126 + Decitabine; first compound 2.53 µM)	relative viability (GSK126 + Decitabine; first compound 8 µM)	relative viability (GSK126 + Vorinostat; first compound 0.08 µM)	relative viability (GSK126 + Vorinostat; first compound 0.253 µM)	relative viability (GSK126 + Vorinostat; first compound 0.8 µM)	relative viability (GSK126 + Vorinostat; first compound 2.53 µM)	relative viability (GSK126 + Vorinostat; first compound 8 µM)	relative viability (MLN4924 + Bortezomib; first compound 0.04 µM)	relative viability (MLN4924 + Bortezomib; first compound 0.1265 µM)	relative viability (MLN4924 + Bortezomib; first compound 0.4 µM)	relative viability (MLN4924 + Bortezomib; first compound 1.265 µM)	relative viability (MLN4924 + Bortezomib; first compound 4 µM)
201T	1.02	1.06	1.1	0.988	1	0.865	0.899	0.916	0.86	0.946	1.05	1.04	0.954	1.13	1.15	1.16	1.04	1.08	0.4	0.392
A549						0.224	0.299	0.26	0.253	0.272										
A-427	0.934	0.928	0.928	0.803	0.976	0.586	0.63	0.565	0.559	0.568	0.863	0.833	0.865	0.958	0.896	0.622	0.447	0.231	0.195	0.197
ABC-1	1.17	0.704	0.451	0.435	0.273	1.14	0.907	0.885	1	1	1.19	1.08	1.05	1.11	1.01	0.344	0.331	0.259	0.274	0.211
BEN	0.462	0.3	0.257	0.311	0.266	0.834	0.658	0.78	0.901	0.744	0.658	0.528	0.503	0.617	0.617	0.687	0.51	0.267	0.16	0.122
CAL-12T	0.324	0.334	0.317	0.579	0.282						0.852	0.814	0.614	0.777	0.9		0.971	0.659	0.369	0.22
COR-L23	0.617	0.678	0.568	0.254	0.163	0.467	0.373	0.389	0.448	0.433	0.56	0.42	0.461	0.453	0.407	0.936	0.915	0.587	0.186	0.105
COR-L 105	1.04	0.851	0.677	0.667	0.648	0.591	0.629	0.653	0.575	0.667	0.963	0.828	0.639	0.826	0.68	0.629	0.396	0.252	0.242	0.41
Calu-6																1	0.557	0.219	0.152	0.158
ChaGo-K-1	0.774	0.589	0.399	0.398	0.297	0.526	0.506	0.525	0.537	0.544	0.767	0.736	0.747	0.825	0.763	0.535	0.53	0.436	0.337	0.278
EBC-1																0.403	0.269	0.17	0.117	0.142
EKVX	0.903	0.864		0.695	0.727	0.343	0.383	0.39	0.351	0.301	0.778	0.659	0.708	0.687	0.574	0.806	0.711	0.475	0.236	0.135
EMC-BAC-2	1.22	1.15	1.15	1	0.751	1.05	0.974	0.878	0.893	0.936	0.427	0.4	0.442	0.451	0.499	0.96	0.842	0.274	0.162	0.155
EPLC-272H	0.308	0.297	0.266	0.387	0.226	0.441	0.349	0.39	0.358	0.361	0.346	0.342	0.344	0.29	0.511	0.808	0.927	0.131	0.163	0.177
H3255	1.02	1.03	0.964	0.772	0.704	0.479	0.628	0.665	0.502	0.684	0.821	0.865	0.842	0.817	0.794	0.559	0.707	0.262	0.2	0.32
HARA	0.847	0.756	0.701	0.573	0.752	0.628	0.629	0.403	0.519	0.402	0.554	0.47	0.551	0.51	0.41	0.918	0.516	0.218	0.101	0.0858
HCC-15	0.434	0.302	0.177	0.306	0.42	0.739	0.656	0.685	0.59	0.609	0.887	0.756	0.843	0.816	0.714	0.685	0.53	0.234	0.102	0.0928
HCC-44	1.16	0.755	0.406	0.305	0.31	0.918	1.06	1.06	0.89	0.971	1.15	1.15	1.05	1.08	1.15	0.774	0.642	0.281	0.208	0.19
HCC-78						0.756	0.659	0.683	0.839	0.74	0.429	0.402	0.413	0.437	0.452	0.568	0.397	0.51	0.241	0.229
HCC-366						0.34	0.34	0.336	0.463	0.338	0.389	0.354	0.29	0.342	0.385	1.04	1.01	0.911	0.293	0.0253
HCC-827	0.653	0.675	0.441	0.452	0.3	0.396	0.368	0.313	0.325	0.323	0.893	0.929	0.798	0.925	0.919	1.05	0.966	0.791	0.474	0.375

Cell Line	relative viability (Carboplatin + Luminespib; first compound 0.08 µM)	relative viability (Carboplatin + Luminespib; first compound 0.253 µM)	relative viability (Carboplatin + Luminespib; first compound 0.8 µM)	relative viability (Carboplatin + Luminespib; first compound 2.53 µM)	relative viability (Carboplatin + Luminespib; first compound 8 µM)	relative viability (GSK126 + Decitabine; first compound 0.08 µM)	relative viability (GSK126 + Decitabine; first compound 0.253 µM)	relative viability (GSK126 + Decitabine; first compound 0.8 µM)	relative viability (GSK126 + Decitabine; first compound 2.53 µM)	relative viability (GSK126 + Decitabine; first compound 8 µM)	relative viability (GSK126 + Vorinostat; first compound 0.08 µM)	relative viability (GSK126 + Vorinostat; first compound 0.253 µM)	relative viability (GSK126 + Vorinostat; first compound 0.8 µM)	relative viability (GSK126 + Vorinostat; first compound 2.53 µM)	relative viability (GSK126 + Vorinostat; first compound 8 µM)	relative viability (MLN4924 + Bortezomib; first compound 0.04 µM)	relative viability (MLN4924 + Bortezomib; first compound 0.1265 µM)	relative viability (MLN4924 + Bortezomib; first compound 0.4 µM)	relative viability (MLN4924 + Bortezomib; first compound 1.265 µM)	relative viability (MLN4924 + Bortezomib; first compound 4 µM)
HOP-62	0.957	0.876	0.819	0.799	0.719	0.216	0.203	0.21	0.197	0.248	0.725	0.542	0.633	0.646	0.665	0.392	0.402	0.117	0.0531	0.0923
IA-LM											1.06	0.797	0.941	0.929	0.853	0.381	0.202	0.0828	0.0567	0.0708
LC-2-ad	1.02	1.01	0.993	0.911	0.651	0.779	0.866	0.717	0.876	0.78	0.767	0.667	0.704	0.712	0.63	0.943	0.859	0.41	0.226	0.104
LK-2	0.177	0.198	0.179	0.16	0.178	0.42	0.239	0.333	0.273	0.31	0.239	0.233	0.411	0.279	0.298					
NCI-H358	0.359	0.77	0.259	0.409	0.222	0.231	0.2	0.207	0.229	0.218	0.767	0.708	0.644	0.68	0.672					
NCI-H522	1.05	1.38	0.851	0.904	0.835	0.717	0.587	0.716	0.581	0.683	0.888	0.887	0.954	1.04	0.92					
NCI-H1299																1.01	0.803	0.402	0.269	0.225
NCI-H1395	0.864	0.543	0.731	0.458	0.331	0.718	0.671	0.713	0.736	0.652	0.655	0.731	0.715	0.855	0.743					
NCI-H1563	0.526	0.506	0.499	0.482	0.565											1.35	1.03	0.617	0.474	0.59
NCI-H1623	0.548	0.469	0.457	0.507	0.433															
NCI-H1648						0.561	0.562	0.554	0.633	0.492	0.496	0.401	0.467	0.5	0.548					
NCI-H1703																0.117	0.0992	0.138	0.111	0.123
NCI-H1792	0.492	0.36	0.44	0.415	0.267	0.716	0.546	0.498	0.412	0.575						0.938	1	1.09	0.663	0.425
NCI-H1793	0.153	0.172	0.187	0.185	0.17	0.601	0.423	0.48	0.567	0.475	0.841	0.703	0.717	0.825	0.671					
NCI-H1944	0.881	0.661	0.661	0.452	0.389	0.526	0.413	0.419	0.433	0.411	0.656	0.524	0.601	0.566	0.594					
NCI-H2170	0.911	0.783	0.47	0.351	0.283	0.517	0.467	0.44	0.467	0.444	0.914	1.01	0.748	0.799	0.772					
NCI-H2228	0.179	0.136	0.115	0.158	0.132						0.343	0.725	0.644	0.616	0.923		1.03	0.309	0.121	0.166
NCI-H2342	0.898	0.789	0.68	0.788	0.608	0.75	0.7	0.7	0.628	0.812	0.82	0.753	0.74	0.725	0.857					
SK-MES-1	0.891	0.763	0.714	0.777	0.81	0.41	0.463	0.418	0.391	0.431	1.12	1.19	1.04	1.04	1.13					
SW 900	0.16	0.168	0.162	0.161	0.15	0.444	0.356	0.459	0.487	0.462	0.421	0.546	0.432	0.39	0.566					
